Source: patent US20250228858A1, “ANTI-CANCER COMBINATION THERAPY” (Boehringer Ingelheim International GmbH, priority 2023, published 2025)

What was measured:
[1] = test system: HER2-overexpressing human esophagus cancer cell line OE19; assay: OE19 subcutaneous xenograft, zongertinib with trastuzumab; assay type: in vivo, NMRI-Foxn1^nu mice; details: day 14; for Regressions >30%: tumors regressed/total (partial response)
Description: The study is performed in human esophagus cancer cell line OE19 grown as subcutaneous xenografts in NMRI-Foxn1^nu mice. Day 1 was the first day, day 14 the last day of treatment and final day of analysis.
OE19 is obtained and cultured as described in Example 3 (see paragraph 3.1.2).
(§1) Mice in the control group are treated with vehicle, i.e.: • (iii) 0.5% Natrosol, administered once daily for the duration of the treatment intragastrally by gavage needle with a volume of 10 ml/kg body weight; and • (iv) saline (0.9%), administered once weekly intraperitoneally with a volume of 10 ml/kg.
Tumor volumes and side effects are monitored as described in Example 1 (see paragraph 1.1.6), except that control animals are sacrificed when the median tumor volume of the group reaches a size of approximately 640 mm^3.
The statistical evaluation of the tumor volume and the body weight is conducted on day 14 (last day of the study). Apart from this, statistical analysis was performed as described in Example 1 (see paragraph 1.1.7), with no evaluation of tumor growth after stop of treatment.

[2] = test system: HER2-overexpressing human NSCLC cell line NCI-H2170; assay: NCI-H2170 subcutaneous xenograft, zongertinib with T-DXd; assay type: in vivo, NMRI-Foxn1^nu mice; details: day 21, alone or combined; for Regressions >30%: tumors regressed/total (partial response)
Description: The study is performed in human NSCLC cell line NCI-H2170 grown as subcutaneous xenografts in NMRI-Foxn1^nu mice. Day 1 was the first day, day 21 the last day of treatment and final day of analysis.
NCI-H2170 is a HER2-overexpressing NSCLC cell line that can be obtained from the American Type Culture Collection (ATCC #CRL-5928; original vial lot: 4419196). Cells are cultured in T175 tissue culture flasks at 37° C. and 5% CO2. The medium used is RPMI 1640 (ATCC #30-2001) supplemented with 10% fetal bovine serum (FBS) (Gibco #26140079). Cultures are split twice weekly with a ratio of 1:3-1:9.
To establish subcutaneous tumors, NCI-H2170 cells are harvested by centrifugation, washed and resuspended in PBS+5% FCS at 1×10^7 cells/ml. 100 μl cell suspension containing 1×10^6 cells are injected subcutaneously into the right flank of the mice (1 site per mouse).
Tumor volumes and side effects are monitored as described in Example 1 (see paragraph 1.1.6), except that control animals are sacrificed when the median tumor volume of the group reaches a size of approximately 1000 mm^3.
(§2) The statistical evaluation of the tumor volume and the body weight is conducted on day 21 (last day of the study). Apart from this, statistical analysis was performed as described in Example 1 (see paragraph 1.1.7), with no evaluation of tumor growth after stop of treatment.

[3] = test system: HER2-overexpressing human NSCLC cell line Calu-3; assay: Calu-3 subcutaneous xenograft, zongertinib with trastuzumab and/or pertuzumab; assay type: in vivo, CB-17/Icr-Prkdc^scid mice; details: day 42, zongertinib 20 mg/kg qdx42 p.o., trastuzumab 20 mg/kg q7dx6 i.p., pertuzumab 20 mg/kg q7dx6 i.p., alone or combined
Description: The study is performed in human NSCLC cell line Calu-3 grown as subcutaneous xenografts in CB-17/Icr-Prkdc^scid mice. Day 1 was the first day, day 42 the last day of treatment and final day of analysis.
Calu-3 is a HER2-overexpressing human NSCLC cell line that can be obtained from ATCC (lot 614492062). Cells are cultured in T75, T175 and 5-Layer tissue culture flasks at 37° C. and 5% CO2. The medium used is EMEM (Lonza BE12-662F) supplemented with 10% FCS (Cytiva HyClone Characterized FBS, SH30084.03n), 2 mM Glutamax (Gibco 35050-038), 0.5 mM sodium pyruvate (Sigma S8636). Cultures are split once weekly with a ratio of 1:1.5-1:2.
To establish subcutaneous tumors, Calu-3 cells are harvested by centrifugation, washed and resuspended in PBS+5% FCS at 7×10^7 cells/ml. 50 μl cell suspension containing 3.5×10^6 cells is injected subcutaneously into the right flank of mice (1 site per mouse).
as §1, with “(i)” for “(iii)”, “(ii)” for “(iv)”, “every week” for “weekly”
Tumor volumes and side effects are monitored as described in Example 1 (see paragraph 1.1.6).
as §2

[4] = zongertinib 20 mg/kg qdx14 p.o., trastuzumab 20 mg/kg q7dx2 i.p., alone or combined
[5] = zongertinib 20 mg/kg qdx21 p.o., T-DXd 3 mg/kg q21dx1 i.v.

## C=CC(=O)NC1CCN(c2ncc3ncnc(Nc4ccc(Oc5ccc6c(c5)ncn6C)c(C)c4)c3n2)CC1 [Zongertinib, N-{1-[8-({3-methyl-4-[(1-methyl-1H-1,3-benzodiazol-5-yl)oxy]phenyl}amino)-[1,3]diazino [5,4-d]pyrimidin-2-yl]piperidin-4-yl}prop-2-enamide]
[1]; number of tumors out of 8, zongertinib 20 mg/kg qdx14, trastuzumab 20 mg/kg q7dx2, monotherapies
  stable disease: no stable disease
[1]; [4]
  Regressions >30%: 0/8
  TGI: 80%
[1]; zongertinib 20 mg/kg qdx14 p.o., trastuzumab 20 mg/kg q7dx2 i.p., alone or combined, listed as zongertinib
  Regressions >30%: no partial response
[2]; number of tumors out of 8, zongertinib 20 mg/kg qdx21, T-DXd 3 mg/kg q21dx1
  stable disease: 1
[2]; [5]
  Regressions >30%: 0/8
  TGI: 89%
[2]; zongertinib 20 mg/kg qdx21 p.o., T-DXd 3 mg/kg q21dx1 i.v., listed as zongertinib
  Regressions >30%: no partial responses
[3]; tumors regressed/total (partial response)
  Regressions >30%: 0/10
[3]
  TGI: 64%
